Assay results taken from paper PMC9468151, “Identification of a binding site on soluble RANKL that can be targeted to inhibit soluble RANK-RANKL interactions and treat osteoporosis” (Nature Communications, 2022).
“And” between values parts separate entries of the source, which are not always exact repeats. Identical values can stand only once.

Tests used:
[1] = test system: sRANKL induced osteoclast differentiation; experiment: In vitro anti-osteoclastogenesis activity determination (TRAP staining); type: cell-based, mouse; parameters: key to inhibition of osteoclastogenesis, dose-response (fig. S2a): % inhibition = 100 − (treated−unstimulated)/(untreated−unstimulated)×100; details: for inhibition of osteoclastogenesis, dose-response (fig. S2a): three replicate columns; for IC50: BMMs, M-CSF + 100 ng/mL sRANKL, 5 days, TRAP staining, read-out: OC IC50 (anti-osteoclastogenesis activity)
Experimental: Mouse osteoclasts were cultured according to the previously reported protocols. BMMs were plated in 96-well plates at a density of 6 × 10^3 cells/well with complete medium containing 10 ng/mL M-CSF. The following day, cells were then stimulated with 100 ng/mL sRANKL in the presence or absence of compounds with different concentrations every 2 days until osteoclasts formed. In order to calculate IC50, we set 9 concentrations for each compound and untreated and non-sRANKL unstimulating group as controls, each with triplicated repeated wells. After 5 days, cells were fixed with 4% paraformaldehyde and then applied TRAP-staining to identify osteoclasts by using the TRAP-staining kit. Osteoclasts number (OC No.) in each well was counted and the percentage of inhibition ratio was calculated as follows:1 OCinhibitoryratio%=100−OCNo.treated−OCNo.unstimulating/OCNo.untreated−OCNo.unstimulating×100%
The dosages and their correspondent osteoclastogenesis inhibitory activity curve and IC50 value were conducted by using Nonlinear regression (curve fit) analytic procedure in GraphPad Prism 8. Photographs of individual wells were taken using Leica microscope.

[2] = test system: RAW264.7 cells; experiment: In vitro cytotoxicity assay (MTT); type: cell-based, mouse; details: RAW264.7, MTT
Experimental: MTT assay was used to determine cell viability. RAW264.7 cells in the logarithmic growth phase were cultured in 96-well plates with 6 × 10^3 cells in each well and incubated for 24 h. The surviving cells were then determined by MTT method. […] Cell growth inhibition ratio was calculated as follows: Cellgrowthinhibitionratio%=ODvehicle−ODtreaed/ODvehicle×100%
Cell cytotoxicity CC50 value were conducted by using Nonlinear regression (curve fit) analytic procedure in GraphPad Prism 8.

Compound	inhibition of osteoclastogenesis, dose-response (fig. S2a) ([1]; conc. 0.0023464 μM)	inhibition of osteoclastogenesis, dose-response (fig. S2a) ([1]; conc. 0.00774313 μM)	inhibition of osteoclastogenesis, dose-response (fig. S2a) ([1]; conc. 0.0255523 μM)	inhibition of osteoclastogenesis, dose-response (fig. S2a) ([1]; conc. 0.0843226 μM)	inhibition of osteoclastogenesis, dose-response (fig. S2a) ([1]; conc. 0.278265 μM)	inhibition of osteoclastogenesis, dose-response (fig. S2a) ([1]; conc. 0.918274 μM)	inhibition of osteoclastogenesis, dose-response (fig. S2a) ([1]; conc. 3.0303 μM)	inhibition of osteoclastogenesis, dose-response (fig. S2a) ([1]; conc. 10 μM)	inhibition of osteoclastogenesis, dose-response (fig. S2a) ([1]; conc. 33 μM)	CC50 [2] [µM]	IC50 [1] [µM]
CC(=O)C(=NNc1ccccc1C(=O)[O-])C(=O)Nc1nc(C)cs1.[Na+] [S3-12]	4.4898 and 6.02 and -2.2449	6.939 and -1.02 and -1.633	4.796 and 0.8163 and -3.469	37.8571 and 16.4286 and 7.857	39.3878 and 32.9592 and 21.3265	55.3061 and 47.3469 and 54.0816	74.2857 and 67.551 and 64.4898	94.7959 and 77.0408 and 85	100	65.8	
CCOC(=O)c1sc(NC(=O)C(=NNc2ccc(F)cc2C(=O)O)C(C)=O)nc1C [S3-14]	3.265 and -2.857 and -2.551	7.2449 and 0.2041 and -2.857	7.2449 and 2.041 and 14.2857	37.8571 and 28.9796 and 23.4694	54.3878 and 61.4286 and 45.8163	73.9796 and 67.2449 and 59.2857	88.9796 and 96.3265 and 87.7551	98.4694 and 95.7143 and 97.551	100	76.2	0.27
CCOC(=O)c1sc(NC(=O)C(=NNc2cc(C)ccc2C(=O)O)C(C)=O)nc1C [S3-10]	3.829 and 3.173 and -0.4376	4.486 and 2.516 and 3.173	5.142 and 3.173 and 7.1116	9.409 and 8.096 and 12.3632	13.6761 and 23.1947 and 19.256	34.0263 and 27.4617 (2×)	35.3392 and 33.3698 and 37.6368	87.1991 and 82.6039 and 90.1532	100	41.1	
CCOC(=O)c1sc(NC(=O)C(=NNc2ccc(OC)cc2C(=O)O)C(C)=O)nc1C [S3-21]	1.224 and -3.182 and 3.06	7.099 and 0.1224 and 2.326	7.099 and 3.427 and 5.998	11.5055 and 14.0759 and 15.9119	35.7405 and 36.4749 and 35.0061	54.8348 and 53.7332 and 55.5692	59.2411 and 62.1787 and 63.2803	74.6634 and 76.8666 and 77.9682	100	> 100	0.95
CC(=O)C(=NNc1ccccc1C(=O)O)C(=O)Nc1nc(C)c(C(=O)N2CCOCC2)s1 [S3-20]	-0.2448 and 3.06 and 1.591	8.935 and 4.896 and 2.326	5.263 and 4.529 and 0.8568	5.63 and 2.326 and 1.591	4.529 and 3.06 and 3.794	5.63 and 5.263 (2×)	5.263 and 7.466 and 5.998	58.8739 and 58.1395 and 58.5067	97.4296 and 97.0624 and 96.328	> 100	8.71
CCOC(=O)c1sc(NC(=O)C(=NNc2c(C(=O)O)cccc2C(=O)O)C(C)=O)nc1C [S3-19]	10.2719 and 4.834 (2×)	5.287 and 4.834 and 5.74	0.7553 and 1.208 and 3.021	5.74 and 4.381 and -1.0574	18.8822 and 16.6163 and 15.2568	19.7885 and 17.0695 and 17.5227	26.1329 and 38.3686 and 35.1964	44.713 (2×) and 40.6344	74.1692 and 70.997 and 80.0604	77.9	9.49
